From article PMC7435865, “Antinociceptive and Cytotoxic Activity of Opioid Peptides with Hydrazone and Hydrazide Moieties at the C-Terminus” (Molecules, 2020)
Read-outs that look alike come from different tables or passages of the source. Where a SMILES comes first, the peptide text is derived from it. [ ]: non-standard residue; d: D form. The star is where a group is joined. X4 = O=C(NN*)c1cc(C(F)(F)F)cc(C(F)(F)F)c1; X3 = FC(F)(F)c1cc(C=NN*)cc(C(F)(F)F)c1

How the values were obtained:
male Wistar rats = experiment: tail flick test after intrathecal administration; format: in vivo, rat; settings: for ED50 ± SEM: tail flick, i.t., n = 4–8
Procedure: Analgesic activity of compounds 1b–1d was measured in the tail flick test after intrathecal administration to rats, according to a procedure thoroughly described before. First, adult male Wistar rats weighing 200–250 g were prepared for intrathecal administration by the catherization method described previously by Yaksh and Rudy. Each experimental group consisted of 4–8 rats. Next, spinally mediated analgesia was assessed in the tail flick test utilizing the Plantar Test and Tail Flick Analgesia Meter apparatus (IITC Life Science Inc., Los Angeles, CA, USA). Withdrawal latency was measured in triplicate. The cut-off latencies were set at 7 s to avoid burns. The measurements were performed before the administration of the tested compound (time 0) and 5, 15, 30, 60, and 120 min after injection. The control group received injections of 0.9% NaCl. Data from in vivo studies are presented as means ± SEM and were analyzed using two-way repeated measures of ANOVA followed by Dunnett-corrected multiple comparisons. Significance was defined as * p < 0.033, ** p < 0.002, *** p < 0.001. Data were analyzed using GraphPad Prism. The responses were expressed as a percentage of a maximum possible effect (%MPE), calculated as ((T1 − T0)/(T2 − T0)) × 100, where T0 and T1 are latencies before and after drug injection, respectively, and T2 is the cut-off time. All experimental procedures were approved by The Local Committee for Ethics in Animal Experiments, permission no. 46/2013.

[1] = biological target: T1, neurokinin-1 receptor (NK1R) (Rattus norvegicus, UniProt P14600); experiment: competitive radioligand binding, [3H]Substance P displacement in rat brain homogenate
T1 construct: from tissue; host or cells: rat brain (membrane fractions of homogenate)
T1 sequence (P14600 whole entry): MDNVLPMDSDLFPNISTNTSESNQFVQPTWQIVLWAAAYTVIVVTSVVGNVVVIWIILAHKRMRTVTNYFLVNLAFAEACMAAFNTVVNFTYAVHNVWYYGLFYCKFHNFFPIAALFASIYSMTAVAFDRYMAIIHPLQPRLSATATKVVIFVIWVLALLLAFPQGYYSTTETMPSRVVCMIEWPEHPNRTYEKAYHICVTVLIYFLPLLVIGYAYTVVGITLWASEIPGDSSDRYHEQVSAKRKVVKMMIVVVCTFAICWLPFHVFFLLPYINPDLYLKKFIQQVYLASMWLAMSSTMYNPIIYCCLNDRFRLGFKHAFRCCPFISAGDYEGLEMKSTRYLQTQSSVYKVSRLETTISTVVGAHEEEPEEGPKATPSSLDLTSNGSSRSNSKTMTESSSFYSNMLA
Procedure: (§1) The synthesized compounds were assayed for binding affinity to the μ- and δ-opioid (MOR and DOR, respectively), as well as to the neurokinin-1 receptors (NK1R). The determinations were performed in rat brain homogenates by competitive displacement of selective radioligands. The results are shown in Table 2 as the half-maximal inhibitory concentration (IC50) with the standard error of the mean (SEM).
(§2) The binding affinity of compounds 1b–6a for MOR, DOR, and NK1R was determined in competitive radioligand binding assays according to the method previously described. The specific radioligands were [^3H]DAMGO (DAMGO, [Tyr^1-3,5-^3H])), [^3H][Ile^5,6]DELT II ([Ile^5,6]Deltorphin II, [Tyr^l-3,5-^3H]) and [^3H]Substance P (Substance P, [Leu-3,4,5-^3H]), for experiments with MOR, DOR, and NK1R, respectively. The first two were obtained from Isotope Laboratory, Biological Research Centre, Institute of Biochemistry (Szeged, Hungary), whereas the latter was purchased from Perkin Elmer (Perkin Elmer Inc., Krakow, Poland). Membrane fractions of rat brain homogenate were incubated at 25 °C for 60 min in the presence of radioligands (0.5 nM) specific for each receptor and increasing concentrations of the tested compounds. To measure non-specific binding, 10 μM naloxone was used as the competitor for opioid receptors and 10 μM cold Substance P was used for NK1R. The reactions were carried out in assay buffer containing Tris-HCl (pH 7.4) with an addition of bovine serum albumin (BSA) and protease inhibitors (bacitracin, bestatin, captopril). After the incubation, the binding reactions were terminated by rapid filtration with M-24 Cell Harvester (Brandel/USA) through GF/B Whatman glass fiber strips (presoaked with 0.5% PEI in order to minimize non-specific binding). Radioactivity retained on the filters was measured in MicroBeta LS on a Trilux scintillation counter (PerkinElmer, Santa Clara, CA, USA). The experiments were repeated at least two times in duplicate. The IC50 value for each compound was determined using GraphPad Prism.

[2] = system: MeW155 human melanoma cells; experiment: melanoma cell number in culture after incubation with compound; format: cell-based; settings: 50 µM, 96 h incubation
Procedure: The determination was performed by counting the cells of the MeW155 cell line after incubating them with 50 µM of the tested compounds.
The cells were plated in 24-well plates (5000 cells per well) and incubated for 24 h in Eagle’s medium containing 10% fetal bovine serum and 1% solution of penicillin and streptomycin. […] Control cells were treated with 1% DMSO only. After 96 h of incubation, the cell suspension was first lysed in lysis buffer (ReagentA, ChemoMetec A/S) and then stabilized in stabilization buffer (ReagentB, ChemoMetec A/S). The number of […] was quantified in a propidium iodide cassette with the use of a NucleoCounter® NC-100™ (ChemoMetec A/S) cell counter. The tests were performed in triplicate. The results were normalized so that the values obtained for the control were 100%.

δ opioid receptor (DOR) = biological target: T2, δ opioid receptor (DOR) (Rattus norvegicus, UniProt P33533); experiment: competitive radioligand binding, [3H][Ile5,6]Deltorphin II displacement in rat brain homogenate
T2 construct: from tissue; host or cells: rat brain (membrane fractions of homogenate)
T2 sequence (P33533 whole entry): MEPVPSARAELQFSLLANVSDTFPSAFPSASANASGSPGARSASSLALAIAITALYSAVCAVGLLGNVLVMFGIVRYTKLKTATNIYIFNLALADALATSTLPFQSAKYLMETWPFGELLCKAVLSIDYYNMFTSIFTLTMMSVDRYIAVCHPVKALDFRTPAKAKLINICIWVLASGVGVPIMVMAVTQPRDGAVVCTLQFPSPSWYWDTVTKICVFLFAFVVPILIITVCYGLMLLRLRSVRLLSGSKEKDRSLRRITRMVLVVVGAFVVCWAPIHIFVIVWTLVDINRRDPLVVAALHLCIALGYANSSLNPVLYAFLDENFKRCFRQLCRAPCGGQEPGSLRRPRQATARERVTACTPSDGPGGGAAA
Procedure: as §1, §2

µ opioid receptor (MOR) = biological target: T3, µ opioid receptor (MOR) (Rattus norvegicus, UniProt P33535); experiment: competitive radioligand binding, [3H]DAMGO displacement in rat brain homogenate
T3 construct: from tissue; host or cells: rat brain (membrane fractions of homogenate)
T3 sequence (P33535 whole entry): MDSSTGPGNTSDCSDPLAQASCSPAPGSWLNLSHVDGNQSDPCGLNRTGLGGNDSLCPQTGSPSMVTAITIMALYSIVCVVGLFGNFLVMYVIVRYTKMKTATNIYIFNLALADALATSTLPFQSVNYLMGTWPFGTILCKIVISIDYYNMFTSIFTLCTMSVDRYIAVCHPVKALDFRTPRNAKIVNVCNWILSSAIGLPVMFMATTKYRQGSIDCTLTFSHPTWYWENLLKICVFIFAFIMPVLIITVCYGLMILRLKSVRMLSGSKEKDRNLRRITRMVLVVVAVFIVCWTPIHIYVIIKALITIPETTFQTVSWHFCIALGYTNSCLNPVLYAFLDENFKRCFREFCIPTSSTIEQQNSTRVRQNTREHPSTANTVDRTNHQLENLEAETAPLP
Procedure: as §1, §2

[3] = 0.5 nmol/rat i.t., 15 min after injection

SMILES | IC50 [1] [nM] | effect on number of melanoma cells (in words) [2] | IC50 (δ opioid receptor (DOR)) [nM] | IC50 (µ opioid receptor (MOR)) [nM] | number of MeW155 cells, % of the control value [2] | DOR binding (in words) (δ opioid receptor (DOR); rat brain homogenate) | other results
C[C@@H](NC(=O)[C@@H](N)Cc1ccc(O)cc1)C(=O)NCC(=O)N[C@@H](Cc1ccccc1)C(=O)NNC(=O)c1cc(C(F)(F)F)cc(C(F)(F)F)c1 [1b, H-Tyr-D-Ala-Gly-Phe-NH-NH-C(=O)-3,5-(CF3)2Ph] | > 1000 | no effect | 413 ± 105 | 111 ± 12.7 |  |  | area under the time course curve (AUC) of analgesic effect (male Wistar rats; 0.5 nmol/rat i.t.): 3421 ± 673 units; antinociceptive effect, % of maximal possible effect (male Wistar rats; [3]): 65 ± 6 % MPE
C[C@@H](NC(=O)[C@@H](N)Cc1ccc(O)cc1)C(=O)NCC(=O)N[C@@H](Cc1ccccc1)C(=O)NNC(=O)Cc1cc(C(F)(F)F)cc(C(F)(F)F)c1 [1c, H-Tyr-D-Ala-Gly-Phe-NH-NH-C(=O)-CH2-3,5-(CF3)2Ph] | > 1000 | no effect | 162 ± 8.75 | 5.25 ± 1.14 |  |  | area under the time course curve (AUC) of analgesic effect (male Wistar rats; 0.5 nmol/rat i.t.): 1417 ± 730.1 units; antinociceptive effect, % of maximal possible effect (male Wistar rats; [3]): 31 ± 6 % MPE; antinociceptive effect, % of maximal possible effect (male Wistar rats; 1 nmol/rat i.t., 15 min): 85 ± 7 % MPE; ED50 ± SEM (male Wistar rats): 0.56 ± 0.04 nmol/rat
C[C@@H](NC(=O)[C@@H](N)Cc1ccc(O)cc1)C(=O)NCC(=O)N[C@@H](Cc1ccccc1)C(=O)NNC(=O)NN=Cc1cc(C(F)(F)F)cc(C(F)(F)F)c1 [1d, H-Tyr-D-Ala-Gly-Phe-NH-NH-C(=O)-NH-N=CH-3,5-(CF3)2Ph] | > 1000 | no effect | 44 ± 2.75 | 4.73 ± 0.02 |  |  | area under the time course curve (AUC) of analgesic effect (male Wistar rats; 0.5 nmol/rat i.t.): 5732 ± 1161 units; antinociceptive effect, % of maximal possible effect (male Wistar rats; [3]): ~ 80 % MPE; antinociceptive effect, % of maximal possible effect (male Wistar rats; 2 nmol/rat i.t., 120 min after administration): 39 ± 10 % MPE; antinociceptive effect, % of maximal possible effect (male Wistar rats; 4 nmol/rat i.t., 15 min): 99 ± 7 % MPE; ED50 ± SEM (male Wistar rats): 0.32 ± 0.04 nmol/rat
C[C@@H](NC(=O)[C@@H](N)Cc1ccc(O)cc1)C(=O)NCC(=O)N[C@@H](Cc1c[nH]c2ccccc12)C(=O)NN=Cc1cc(C(F)(F)F)cc(C(F)(F)F)c1 [2a, H-Tyr-D-Ala-Gly-Trp-NH-N=CH-3,5-(CF3)2Ph] (H-Y[dA]GW-X3) | > 1000 | significantly decrease the number of melanoma cells | 914 ± 43.5 | 112 ± 16.9 | 20 ± 4 % of the control |  | MOR IC50 ratio 2a and 1a (µ opioid receptor (MOR); ratio of IC50 of hydrazones 2a and 1a): about 10
C[C@@H](NC(=O)[C@@H](N)Cc1ccc(O)cc1)C(=O)NCC(=O)N[C@@H](Cc1c[nH]c2ccccc12)C(=O)NNC(=O)c1cc(C(F)(F)F)cc(C(F)(F)F)c1 [2b, H-Tyr-D-Ala-Gly-Trp-NH-NH-C(=O)-3,5-(CF3)2Ph] (H-Y[dA]GW-X4) | > 1000 | no effect | 467 ± 36.9 | 93.5 ± 32.8 |  |  | 
C[C@@H](NC(=O)[C@@H](N)Cc1ccc(O)cc1)C(=O)N[C@@H](Cc1ccccc1)C(=O)N[C@@H](Cc1ccccc1)C(=O)NN=Cc1cc(C(F)(F)F)cc(C(F)(F)F)c1 [3a, H-Tyr-D-Ala-Phe-Phe-NH-N=CH-3,5-(CF3)2Ph] (H-Y[dA]FF-X3) | 723 ± 58.2 | significantly decrease the number of melanoma cells | > 1000 | 90.4 ± 9.91 | ~ 2 % of the control | do not exhibit any appreciable DOR binding | 
C[C@@H](NC(=O)[C@@H](N)Cc1ccc(O)cc1)C(=O)N[C@@H](Cc1ccccc1)C(=O)N[C@@H](Cc1ccccc1)C(=O)NNC(=O)c1cc(C(F)(F)F)cc(C(F)(F)F)c1 [3b, H-Tyr-D-Ala-Phe-Phe-NH-NH-C(=O)-3,5-(CF3)2Ph] (H-Y[dA]FF-X4) | > 1000 | no effect | > 1000 | 391 ± 57.9 |  | do not exhibit any appreciable DOR binding | 
C[C@@H](NC(=O)[C@@H](N)Cc1ccc(O)cc1)C(=O)N[C@@H](Cc1c[nH]c2ccccc12)C(=O)NN=Cc1cc(C(F)(F)F)cc(C(F)(F)F)c1 [4a, H-Tyr-D-Ala-Trp-NH-N=CH-3,5-(CF3)2Ph] | > 1000 | significantly decrease the number of melanoma cells | 621 ± 65.2 | 118 ± 40.2 | 65 ± 10 % of the control |  | 
C[C@@H](NC(=O)[C@@H](N)Cc1ccc(O)cc1)C(=O)N[C@@H](Cc1c[nH]c2ccccc12)C(=O)NNC(=O)c1cc(C(F)(F)F)cc(C(F)(F)F)c1 [4b, H-Tyr-D-Ala-Trp-NH-NH-C(=O)-3,5-(CF3)2Ph] |  | no effect |  |  |  |  | IC50 ([1]; rat brain homogenate, [3H]Substance P 0.5 nM, read-out: NK1R IC50 ± SEM): > 1000 nM; IC50 (δ opioid receptor (DOR); rat brain homogenate, [3H][Ile5,6]DELT II 0.5 nM, read-out: DOR IC50 ± SEM): > 1000 nM; IC50 (µ opioid receptor (MOR); rat brain homogenate, [3H]DAMGO 0.5 nM, read-out: MOR IC50 ± SEM): > 1000 nM
N[C@@H](Cc1ccc(O)cc1)C(=O)N1CCC[C@H]1C(=O)N[C@@H](Cc1ccccc1)C(=O)N[C@@H](Cc1ccccc1)C(=O)NN=Cc1cc(C(F)(F)F)cc(C(F)(F)F)c1 [5a, H-Tyr-Pro-Phe-Phe-NH-N=CH-3,5-(CF3)2Ph] | > 1000 | significantly decrease the number of melanoma cells | > 1000 | 28.5 ± 9.41 | ~ 2 % of the control | do not exhibit any appreciable DOR binding | 
N[C@@H](Cc1ccc(O)cc1)C(=O)N1CCC[C@H]1C(=O)N[C@@H](Cc1ccccc1)C(=O)NN=Cc1cc(C(F)(F)F)cc(C(F)(F)F)c1 [6a, H-Tyr-Pro-Phe-NH-N=CH-3,5-(CF3)2Ph] | > 1000 | significantly decrease the number of melanoma cells | > 1000 | 113 ± 7 | 53 ± 3 % of the control | do not exhibit any appreciable DOR binding | 
C[C@@H](O[C@H]1OCCN(Cc2n[nH]c(=O)[nH]2)[C@H]1c1ccc(F)cc1)c1cc(C(F)(F)F)cc(C(F)(F)F)c1 [aprepitant, reference compound] |  |  |  |  | 78 ± 4 % of the control |  | 
